According to patent publication US12629384B2, “Use of 8,9-dihydrocannabidiol compounds” (The Regents of the University of California, priority 2019, dated 2026):

Assays:
[1] = system: PTZ-induced generalised seizures; assay: acute PTZ-induced generalised seizures in rat (antiseizure study); assay type: in vivo; conditions: for maximum seizure severity, median (IQR) / percentage of animals that exhibited tonic-clonic seizures: 200 mg kg^-1 i.p. 1 h before PTZ 85 mg kg^-1; for maximum seizure severity, median (IQR): vehicle median 5, P<0.001 vs vehicle; for percentage of animals that exhibited tonic-clonic seizures: vs vehicle treated group, P<0.05
Procedure: Animals: Male, Wistar Han rats (70-110 g; Harlan, Bicester, UK) were housed on a 12 h light-dark cycle, with food and water available ad libitum. All experiments were conducted in accordance with the UK Animals (Scientific Procedures) Act, 1986 and ARRIVE guidelines for reporting experiments involving animals; 60 rats were used in total.
Drug administration: Animals were randomly divided into 5 groups of 12 animals per group and received either vehicle (ethanol, Cremophor EL and saline (0.9% w/v NaCl), 2:1:17), a positive control (cannabidiol; CBD; 200 mg kg^−1; Sigma-Aldrich, UK) or 8,9-dihydrocannabidiol (H2CBD; 50, 100 or 200 mg kg^−1) via i.p. injection 1 h prior to administration of the convulsant agent to achieve brain cannabinoid Tmax. The convulsant agent pentylenetetrazole (PTZ; 85 mg kg^−1 in 0.9% w/v NaCl) was administered i.p. 1 h after drug or vehicle treatment. Seizure activity was video recorded for 30 min and video records blinded before offline review and coding using a modified Racine scale (0, normal behaviour; 0.5, abnormal behaviour; 1, isolated myoclonic jerk; 2, atypical clonic seizure; 3, bilateral forelimb clonus; 3.5, bilateral forelimb clonus with body twist; 4, tonic-clonic seizure with suppressed tonic phase; 5, fully developed tonic-clonic seizure).
(§1) Statistics: Statistical procedures were performed using GraphPad Prism 7 (GraphPad Software, Inc., San Diego, CA, USA).
In the present study, 60 male, Wistar Han rats were randomly divided into 5 groups of 12 animals each and received either vehicle (ethanol, Cremophor EL, 0.9% w/v saline; 2:1:17), vehicle plus a positive control (CBD; 200 mg kg^−1), or vehicle plus H2CBD (50, 100, or 200 mg kg^−1) via intraperitoneal injection one hour prior to administration of the convulsant agent pentylenetetrazole (PTZ; 85 mg kg^−1 in 0.9% w/v saline).

[2] = blood and brain concentrations post-mortem by HPLC; assay type: in vivo, rat; conditions: samples 90 minutes after administration
Procedure: Assessment of bioanalytes: Chemicals and reagents. 4,4-Dichlorodiphenyltrichloroethane (DDT, CAS: 50-29-3) was used as the internal analytical standard (IS). HPLC grade n-hexane, acetonitrile, water and ascorbic acid were purchased from Sigma Aldrich (UK) and Fisher Scientific.
Analysis of plasma and brain samples: Stock standard solutions of CBD, H2CBD and DDT were prepared in acetonitrile (5 mg/ml and 1 mg/mL) and stored at −20° C. until use. These were further diluted in acetonitrile:water (62:38), to achieve calibration concentrations of 0.1, 0.2, 0.5, 1.5, 10 μg/mL. Plasma samples were prepared for HPLC using a previously validated method. Briefly, DDT ([…]) was added to 150 μL of rat plasma sample as internal standard and plasma proteins were precipitated by the addition of 600 μL of ice cold acetonitrile followed by water (600 μL), with 1 min vortexing between additions. n-Hexane (3 mL) was added to each tube and following a 5 min vortex, tubes were centrifuged at 1160×g for 15 min at 10° C. and the upper organic layer was carefully decanted by glass pipette and retained. The organic layer was evaporated to dryness under a stream of nitrogen at room temperature and reconstituted in 150 μL of the mixture of acetonitrile and water (62:38) prior to HPLC analysis.
For brain analysis, brains were weighed and 1.5× ice-cold solvent (90% acetonitrile; 10% water; 0.1% ascorbic acid) (w/v) was added followed by homogenization for 1 min. DDT (50 μg/ml) was added to each homogenized brain tissue as internal standard, samples were mixed and allowed to equilibrate overnight at −20° C. Samples were then centrifuged at 3500 rpm for 15 min and the top layer retained. Samples were dried by SpeedVac concentrator at room temperature (Savant SPD131DDA, ThermoFisher Scientific, UK) and reconstituted in 150 μL of the mixture of acetonitrile and water (62:38) for HPLC analysis.
HPLC analysis: An Agilent 1200 series HPLC (Hewlett-Packard, Palo Alto, CA, USA) equipped with a photodiode array detector was used for analysis. 30 μl of all samples were injected and separation was achieved using an ACE C18-PFP 150 mm×4.6 mm, 3 μm particle size column (Hichrom Ltd., Reading, UK), protected by an ACE C18-PFP […] guard cartridge. The mobile phase was a mixture of acetonitrile and water in a ratio of 62:38 (v/v). The flow rate was set at 1 mL/min and column temperature was maintained at 55° C. The absorbance of all compounds of interest (CBD and DH-CBD) was monitored at 220 nm.
as §1

[3] = simulated gastric fluid, within one hour; cited from earlier work
rodent behavior [4] = assay: EPM test; assay type: in vivo, rat; conditions: 200 mg kg^-1 i.p., 45 minutes post injection; drug vs vehicle; p=0.49
Procedure: (§2) 12 adult male Sprague Dawley rats were divided at random into two groups of 6 animals each and received either vehicle (Kolliphor RH-40, dmso, 0.9% w/v saline, 1:2:7) or vehicle plus H2CBD (200 mg kg^−1), administered by intraperitoneal injection. The vehicle differed in this case from the anti-seizure study to avoid the potentially confounding effect of alcohol. The number of animals was also limited to the lowest population necessary to establish an effect at the maximum dosage of drug. At 45 minutes post vehicle and drug injections, rats were placed in the center of the EPM and time spent on the open versus closed arms of the maze was recorded. After an interval of two weeks, the same 12 rats were again divided at random into two groups of 6 animals each and dosed as above. Spontaneous locomotor activity was measured 45 minutes after injection by placing the animals in the center of a 16″×16″ arena. Free movement was allowed for 30 minutes and recorded using an automated activity monitoring system.

rodent behavior [5] = assay: open field test, spontaneous locomotor activity; assay type: in vivo, rat
Procedure: as §2

cytochrome P450 = conditions: hepatic microsomal metabolism; consistent with CBD; cited from earlier work
murine macrophages = conditions: consistent with CBD; cited from earlier work
[6] = in contrast to CBD; cited from earlier work

| Compound | maximum seizure severity, median (IQR) [1] | percentage of animals that exhibited tonic-clonic seizures [1] | brain tissue concentration vs vehicle treated group ([2]; 200 mg/kg i.p., P<0.01) | degradation mainly to Δ8- and Δ9-THCs [3] | anticonvulsant action ([1]; 50, 100, 200 mg kg^-1 i.p., maximal protective effect comparable to matching dose of CBD) | blood concentration vs vehicle treated group ([2]; 100 mg/kg i.p., P<0.05) | blood concentration vs vehicle treated group ([2]; 200 mg/kg i.p., P<0.01) | percent time spent on the open arms (rodent behavior [4]) | horizontal distance traveled (rodent behavior [5]; 200 mg kg^-1 i.p., 30 min from 45 minutes after injection, drug vs vehicle, P=0.95) | time in the arena center (rodent behavior [5]; 200 mg kg^-1 i.p., 30 min from 45 minutes after injection, drug vs vehicle, p=0.14) | vertical activity (rodent behavior [5]; 200 mg kg^-1 i.p., 30 min from 45 minutes after injection, drug vs vehicle, p=0.25) | behavioral effects (EPM and open field overall) (rodent behavior [5]; high dosage, 200 mg kg^-1) | effect on cytochrome P450 (cytochrome P450) | antioxidant activity (murine macrophages) | sedative activity [6] |
| --- | --- | --- | --- | --- | --- | --- | --- | --- | --- | --- | --- | --- | --- | --- | --- |
| C=C(C)[C@@H]1CCC(C)=C[C@H]1c1c(O)cc(CCCCC)cc1O [CBD, cannabidiol] | 2 (0.25-3.75 IQR) Racine scale | significantly fewer animals | significant concentrations | nearly complete degradation | – | – | – | – | – | – | – | – | – | – | – |
| CCCCCc1cc(O)c([C@@H]2C=C(C)CC[C@H]2C(C)C)c(O)c1 (relative stereo) [Example H2CBD, 2-(6-Isopropyl-3-methylcyclohex-2-en-1-yl)-5-pentylbenzene-1,3-diol] | 2 (0.25-4.25 IQR) Racine scale | significantly fewer animals | significant concentrations | – | dose-dependent anticonvulsant action | significant concentrations | significant concentrations | No statistically significant differences | no statistically significant differences | no statistically significant differences | no statistically significant differences | no measurable behavioral effects | inhibitory effect | antioxidant activity | little if any evidence of sedative activity |
